Some results are limits rather than exact numbers.

One data set relates to Cigarette Smoke Model. Description: Cigarette smoke model. It is filed as in vivo, A/J mice. To be noted: 1.75 μg/mouse (35 μL, bid, i.n.). How it is done: A/J mice (males, 5 weeks old) were exposed to cigarette smoke (4% cigarette smoke, diluted with air) for 30 min/day for 11 days using a Tobacco Smoke Inhalation Experiment System for small animals (Model SIS-CS; Sibata Scientific Technology, Tokyo, Japan). […] At 12 hr after the last dosing, each of the animals was anesthetized, the trachea cannulated and bronchoalveolar lavage fluid (BALF) was collected. The numbers of alveolar macrophages and neutrophils were determined by FACS analysis (EPICS® ALTRA II, Beckman Coulter, Inc., Fullerton, Calif., USA) using anti-mouse MOMA2 antibody (macrophage) or anti-mouse 7/4 antibody (neutrophil). BALF was centrifuged and the supernatant was collected. The level of keratinocyte chemoattractant (KC; CXCL1) in BALF was quantitated using a Quentikine® mouse KC ELISA kit (R&D systems, Inc., Minneapolis, Minn., USA).

The test system of data set [1] is LPS-induced neutrophil accumulation. Description: LPS-induced neutrophil accumulation in mice. It is filed as in vivo, Balb/c mice. To be noted: 1.75 μg/mouse. How it is done: […] At T=0, mice were placed into an exposure chamber and exposed to LPS (7.0 mL, 0.5 mg/mL solution in PBS) for 30 min). After a further 8 hr the animals were anesthetized, their tracheas cannulated and BALF extracted by infusing and then withdrawing from their lungs 1.0 mL of PBS via the tracheal catheter. Total and differential white cell counts in the BALF samples were measured using a Neubaur haemocytometer. Cytospin smears of the BALF samples were prepared by centrifugation at 200 rpm for 5 min at RT and stained using a DiffQuik stain system (Dade Behring). Cells were counted using oil immersion microscopy. Data for neutrophil numbers in BAL are shown as mean±S.E.M. (standard error of the mean). The percentage inhibition of neutrophil accumulation was calculated for each treatment relative to vehicle treatment.

For data set [2], the system named is Differentiated U937 cells. Kind of data set: Cell viability: MTT assay. It is filed as cell-based, human. To be noted: 1 μg/mL. How it is done:
Differentiated U937 cells were pre-incubated with each test compound (final concentration 1 μg/mL or 10 μg/mL in 200 μL media indicated below) under two protocols: the first for 4 hr in 5% FCS RPMI1640 media and the second in 10% FCS RPMI1640 media for 24 h. The supernatant was replaced with new media (200 μL) and MTT stock solution (10 μL, 5 mg/mL) was added to each well. After incubation for 1 hr the media were removed, DMSO (200 μL) was added to each well and the plates were shaken lightly for 1 hr prior to reading the absorbance at 550 nm. The percentage loss of cell viability was calculated for each well relative to vehicle (0.5% DMSO) treatment. Consequently an apparent increase in cell viability for drug treatment relative to vehicle is tabulated as a negative percentage.
(In general: Formazan colour is commonly taken as a measure of viable cells.)

Consider `CCC(=O)O[C@]1(C(=O)SCF)[C@H](C)C[C@H]2[C@@H]3C[C@H](F)C4=CC(=O)C=C[C@]4(C)[C@@]3(F)[C@@H](O)C[C@@]21C` [Fluticasone Propionate, fluticasone propionate, reference compound], for which, in the data set with Cigarette Smoke Model, the “macrophage accumulation into airways” value is recorded as “did not inhibit” and the “neutrophil accumulation into airways” value is recorded as “did not inhibit”. For the same compound, in data set [1], the “inhibition of LPS-induced neutrophil accumulation” value is given as above 80%.

As to `COCC(=O)Nc1cc(Oc2ccc(NC(=O)Nc3cc(C(C)(C)C)nn3-c3ccc(C)cc3)c3ccccc23)ccn1` [Reference Compound, N-(4-(4-(3-(3-tert-butyl-1-p-tolyl-1H-pyrazol-5-yl)ureido)naphthalen-1-yloxy)pyridin-2-yl)-2-methoxyacetamide, reference compound], the “MTT Assay Cell viability in d-U937 Cells” value in data set [2] (4 h) is “−ve (−ve and +ve indicate the value is below and above respectively, the no significant effect threshold defined as 30% inhibition at 1 μg/mL at the time point indicated.)”; in data set [2] (24 h), “+ve (−ve and +ve indicate the value is below and above respectively, the no significant effect threshold defined as 30% inhibition at 1 μg/mL at the time point indicated.)”.

The record behind these values is US9108950B2, “1-pyrazolyl-3-(4-((2-anilinopyrimidin-4-yl)oxy)napththalen-1-yl) ureas as p38 MAP kinase inhibitors” (Respivert Ltd., priority 2011, dated 2015).
